We go through 9 compounds from ChEMBL document CHEMBL1909294, “Translating clinical findings into knowledge in drug safety evaluation--drug induced liver injury prediction system (DILIps)” (PLoS Comput Biol, 2011).

The test system of data set [1] is Hepatotoxicity.
Data set [2] deals with Hepatotoxicity. The source holds these as a separate data set.
Data set [3] concerns Hepatotoxicity. This is another data set of the same source.
In data set [4] the test system is Hepatotoxicity. This is another data set of the same source.
The test system of data set [5] is Hepatotoxicity. This is another data set of the same source.
Data set [6] has as its system Hepatotoxicity. The source holds these as a separate data set.
Data set [7] concerns Hepatotoxicity. This is another data set of the same source.
Data set [8] relates to Hepatotoxicity. The source holds these as a separate data set.
Data set [9] relates to Hepatotoxicity. The source holds these as a separate data set.
The subject of data set [10] is Hepatotoxicity. The source holds these as a separate data set.
In data set [11] the test system is Hepatotoxicity. The source holds these as a separate data set.
For data set [12], the system named is Hepatotoxicity. The source holds these as a separate data set.
Data set [13] deals with Hepatotoxicity. The source holds these as a separate data set.
The test system of data set [14] is Hepatotoxicity. This is another data set of the same source.
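For HepSE Combined Scores in this document: combined hepatic side effect score as listed in the training data of the Drug Induced Liver Injury Prediction System (DILIps).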
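For HepSE bilirubinemia in this document: bilirubinemia hepatic side effect score drawn from the DILIps training data, a prediction system for drug-induced liver injury; call rule not given here.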
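For HepSE cholecystitis in this document: Cholecystitis-related hepatic side effect score drawn from the DILIps (drug-induced liver injury prediction) training data set; call rule not given here.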
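For HepSE cholelithiasis in this document: hepatic side effect score for cholelithiasis, drawn from the DILIps training data for predicting drug-induced liver injury; call rule not given here.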
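For HepSE cirrhosis in this document: cirrhosis hepatic side effect score taken from the DILIps (drug-induced liver injury prediction) training set; call rule not given here.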
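For HepSE elevated liver function tests in this document: hepatic side effect score for raised liver function tests, as recorded in the DILIps training set used for predicting drug-induced liver injury.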
For HepSE hepatic failure in this document: call rule not given here.
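For HepSE hepatic necrosis in this document: score of hepatic side effects for hepatic necrosis, drawn from the training data of DILIps, a prediction system for drug-induced liver injury; call rule not given here.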
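For HepSE hepatitis in this document: Hepatitis-related hepatic side effect score taken from the training data of DILIps, a prediction system for drug-induced liver injury; call rule not given here.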
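For HepSE hepatomegaly in this document: hepatic side effect score for hepatomegaly, taken from the training set of the DILIps drug-induced liver injury prediction system; call rule not given here.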
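For HepSE jaundice in this document: Jaundice-related hepatic side-effect score drawn from the training data of the DILIps (drug-induced liver injury prediction system); call rule not given here.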
For HepSE liver disease in this document: call rule not given here.
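For HepSE liver fatty in this document: hepatic side effect score for fatty liver, taken from the DILIps training set for predicting drug-induced liver injury; call rule not given here.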
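For HepSE liver function tests abnormal in this document: hepatic side effect score taken from the DILIps (drug-induced liver injury prediction system) training data, here covering abnormal liver function test findings.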

As to `CC(C)(C)NC(=O)[C@@H]1C[C@@H]2CCCC[C@@H]2CN1C[C@@H](O)[C@H](Cc1ccccc1)NC(=O)[C@H](CC(N)=O)NC(=O)c1ccc2ccccc2n1`, the HepSE_jaundice with Hepatotoxicity [1] (Liver) came to 1. The same compound registered a HepSE_cholelithiasis in the data set with Hepatotoxicity [2] (Liver) of 1. In the data set with Hepatotoxicity [3] (Liver), this compound came in with a HepSE_hepatitis of 1. For the same compound, in the data set with Hepatotoxicity [4] (Liver), the “HepSE_liver function tests abnormal” value is reported as 0. The same compound registered a HepSE_liver fatty in the data set on Hepatotoxicity [5] (Liver) of 0. In addition, the HepSE_hepatic failure in the data set on Hepatotoxicity [6] (Liver) is listed as 0. Moreover, the HepSE_hepatomegaly in the data set on Hepatotoxicity [7] (Liver) is on record as 1. Moreover, in the data set with Hepatotoxicity [8] (Liver), the “HepSE_Combined Scores” value is on record as 7. The “HepSE_elevated liver function tests” value in the data set on Hepatotoxicity [9] (Liver) came out at 1. Further, the HepSE_cirrhosis in the data set on Hepatotoxicity [10] (Liver) amounted to 0. In the data set with Hepatotoxicity [11] (Liver), this compound gave a HepSE_hepatic necrosis of 0. The HepSE_bilirubinemia in the data set with Hepatotoxicity [12] (Liver) was determined as 1. The same compound displayed a HepSE_cholecystitis with Hepatotoxicity [13] (Liver) of 0. The HepSE_liver disease in the data set on Hepatotoxicity [14] (Liver) is on record as 1.
`Nc1nc2c(ncn2CCC(CO)CO)c(=O)[nH]1` [PENCICLOVIR] yielded a HepSE_jaundice with Hepatotoxicity [1] of 0. In addition, the HepSE_cholelithiasis in the data set on Hepatotoxicity [2] is 0. In addition, the HepSE_hepatitis in the data set on Hepatotoxicity [3] was 0. Moreover, the “HepSE_liver function tests abnormal” value with Hepatotoxicity [4] turned out to be 0. Further, in the data set with Hepatotoxicity [5], the HepSE_liver fatty is 0. The compound further gave a HepSE_hepatic failure with Hepatotoxicity [6] of 0. Moreover, the HepSE_hepatomegaly in the data set with Hepatotoxicity [7] was 0. For the same compound, in the data set on Hepatotoxicity [8], the “HepSE_Combined Scores” value is reported as 0. Further, the “HepSE_elevated liver function tests” value with Hepatotoxicity [9] was 0. In the data set on Hepatotoxicity [10], this compound displayed a HepSE_cirrhosis of 0. Also, in the data set with Hepatotoxicity [11], the HepSE_hepatic necrosis is given as 0. In addition, the HepSE_bilirubinemia in the data set on Hepatotoxicity [12] was 0. In the data set with Hepatotoxicity [13], the HepSE_cholecystitis was 0. This compound registered a HepSE_liver disease in the data set with Hepatotoxicity [14] of 0.
The compound `CCCC1O[C@@H]2C[C@H]3[C@@H]4CCC5=CC(=O)C=C[C@]5(C)[C@H]4[C@@H](O)C[C@]3(C)[C@]2(C(=O)CO)O1` (stereo partly specified) [BUDESONIDE] yielded a HepSE_jaundice in the data set with Hepatotoxicity [1] of 0. The compound also registered a HepSE_cholelithiasis in the data set on Hepatotoxicity [2] of 0. For the same compound, the HepSE_hepatitis in the data set on Hepatotoxicity [3] was 0. In addition, in the data set with Hepatotoxicity [4], the “HepSE_liver function tests abnormal” value was 0. In the data set with Hepatotoxicity [5], this compound displayed a HepSE_liver fatty of 0. Moreover, the HepSE_hepatic failure with Hepatotoxicity [6] is 0. Moreover, the HepSE_hepatomegaly in the data set on Hepatotoxicity [7] is listed as 0. In addition, the “HepSE_Combined Scores” value in the data set on Hepatotoxicity [8] came to 0. The “HepSE_elevated liver function tests” value with Hepatotoxicity [9] came out at 0. Moreover, the HepSE_cirrhosis in the data set with Hepatotoxicity [10] is 0. Also, the HepSE_hepatic necrosis in the data set on Hepatotoxicity [11] was determined as 0. For the same compound, in the data set on Hepatotoxicity [12], the HepSE_bilirubinemia was determined as 0. Also, the HepSE_cholecystitis in the data set with Hepatotoxicity [13] is 0. The compound also displayed a HepSE_liver disease with Hepatotoxicity [14] of 0.
Regarding `CC1(C)O[C@@H]2C[C@H]3[C@@H]4C[C@H](F)C5=CC(=O)CC[C@]5(C)[C@H]4[C@@H](O)C[C@]3(C)[C@]2(C(=O)CO)O1` [FLURANDRENOLIDE], the HepSE_jaundice in the data set on Hepatotoxicity [1] was determined as 0. Moreover, the HepSE_cholelithiasis in the data set on Hepatotoxicity [2] was 0. This compound also had a HepSE_hepatitis with Hepatotoxicity [3] of 0. Besides, in the data set on Hepatotoxicity [4], the “HepSE_liver function tests abnormal” value turned out to be 0. In the data set on Hepatotoxicity [5], the HepSE_liver fatty was 0. Moreover, in the data set on Hepatotoxicity [6], the HepSE_hepatic failure is given as 0. For the same compound, the HepSE_hepatomegaly in the data set with Hepatotoxicity [7] is on record as 0. Besides, the “HepSE_Combined Scores” value in the data set with Hepatotoxicity [8] was 0. In the data set on Hepatotoxicity [9], the “HepSE_elevated liver function tests” value came out at 0. In the data set with Hepatotoxicity [10], the HepSE_cirrhosis is listed as 0. For the same compound, in the data set with Hepatotoxicity [11], the HepSE_hepatic necrosis was 0. The same compound registered a HepSE_bilirubinemia with Hepatotoxicity [12] of 0. The same compound gave a HepSE_cholecystitis in the data set on Hepatotoxicity [13] of 0. Further, the HepSE_liver disease with Hepatotoxicity [14] was 0.
Turning to `CNC(=O)c1c(I)c(NC(C)=O)c(I)c(C(=O)O)c1I` [IOTHALAMIC ACID], the HepSE_jaundice in the data set with Hepatotoxicity [1] was found to be 0. In the data set with Hepatotoxicity [2], this compound yielded a HepSE_cholelithiasis of 0. In the data set with Hepatotoxicity [3], this compound registered a HepSE_hepatitis of 0. Further, in the data set on Hepatotoxicity [4], the “HepSE_liver function tests abnormal” value was found to be 0. For the same compound, the HepSE_liver fatty in the data set with Hepatotoxicity [5] came to 0. The compound further gave a HepSE_hepatic failure in the data set on Hepatotoxicity [6] of 0. The HepSE_hepatomegaly in the data set on Hepatotoxicity [7] is reported as 0. In the data set with Hepatotoxicity [8], the “HepSE_Combined Scores” value is recorded as 0. For the same compound, the “HepSE_elevated liver function tests” value in the data set on Hepatotoxicity [9] was determined as 0. Further, the HepSE_cirrhosis in the data set with Hepatotoxicity [10] came to 0. In the data set on Hepatotoxicity [11], the HepSE_hepatic necrosis is recorded as 0. The same compound returned a HepSE_bilirubinemia in the data set on Hepatotoxicity [12] of 0. In the data set on Hepatotoxicity [13], this compound yielded a HepSE_cholecystitis of 0. In addition, the HepSE_liver disease in the data set with Hepatotoxicity [14] was determined as 0.
Take `O=C(O)CCC(=O)O.O=C(O[C@H]1CN2CCC1CC2)N1CCc2ccccc2[C@@H]1c1ccccc1` [SOLIFENACIN SUCCINATE]: the HepSE_jaundice in the data set on Hepatotoxicity [1] amounted to 0. The compound further gave a HepSE_cholelithiasis in the data set with Hepatotoxicity [2] of 0. This compound yielded a HepSE_hepatitis with Hepatotoxicity [3] of 0. Also, the “HepSE_liver function tests abnormal” value in the data set with Hepatotoxicity [4] was found to be 1. For the same compound, in the data set with Hepatotoxicity [5], the HepSE_liver fatty was 0. Besides, the HepSE_hepatic failure with Hepatotoxicity [6] turned out to be 0. In addition, in the data set with Hepatotoxicity [7], the HepSE_hepatomegaly was found to be 0. Moreover, in the data set on Hepatotoxicity [8], the “HepSE_Combined Scores” value is 1. Also, the “HepSE_elevated liver function tests” value with Hepatotoxicity [9] is 0. The HepSE_cirrhosis in the data set on Hepatotoxicity [10] turned out to be 0. In the data set with Hepatotoxicity [11], the HepSE_hepatic necrosis is given as 0. For the same compound, in the data set on Hepatotoxicity [12], the HepSE_bilirubinemia amounted to 0. Moreover, the HepSE_cholecystitis in the data set on Hepatotoxicity [13] is recorded as 0. Further, the HepSE_liver disease in the data set with Hepatotoxicity [14] was determined as 0.
`Fc1ccc([C@@H]2CCNC[C@H]2COc2ccc3c(c2)OCO3)cc1` [PAROXETINE]: the HepSE_jaundice with Hepatotoxicity [1] stood at 1. In addition, the HepSE_cholelithiasis in the data set on Hepatotoxicity [2] was determined as 1. The compound also had a HepSE_hepatitis in the data set with Hepatotoxicity [3] of 1. In the data set with Hepatotoxicity [4], the “HepSE_liver function tests abnormal” value turned out to be 1. In the data set on Hepatotoxicity [5], this compound came in with a HepSE_liver fatty of 0. Also, in the data set on Hepatotoxicity [6], the HepSE_hepatic failure is reported as 1. The same compound gave a HepSE_hepatomegaly with Hepatotoxicity [7] of 0. Besides, the “HepSE_Combined Scores” value in the data set with Hepatotoxicity [8] was 8. Moreover, the “HepSE_elevated liver function tests” value in the data set with Hepatotoxicity [9] was 1. In addition, the HepSE_cirrhosis in the data set on Hepatotoxicity [10] is recorded as 0. The HepSE_hepatic necrosis in the data set on Hepatotoxicity [11] is given as 1. Further, the HepSE_bilirubinemia in the data set with Hepatotoxicity [12] came out at 1. The same compound displayed a HepSE_cholecystitis in the data set with Hepatotoxicity [13] of 0. In the data set with Hepatotoxicity [14], this compound gave a HepSE_liver disease of 0.
Regarding `Nc1ncnc2c1ncn2[C@@H]1O[C@H](COP(=O)(S)S)[C@@H](O)[C@H]1O`, the HepSE_jaundice in the data set on Hepatotoxicity [1] came to 1. This compound gave a HepSE_cholelithiasis in the data set with Hepatotoxicity [2] of 0. Besides, the HepSE_hepatitis in the data set with Hepatotoxicity [3] was determined as 1. The “HepSE_liver function tests abnormal” value with Hepatotoxicity [4] was found to be 0. Also, the HepSE_liver fatty with Hepatotoxicity [5] was found to be 0. For the same compound, in the data set on Hepatotoxicity [6], the HepSE_hepatic failure was 1. Besides, the HepSE_hepatomegaly in the data set on Hepatotoxicity [7] turned out to be 0. Also, the “HepSE_Combined Scores” value in the data set with Hepatotoxicity [8] came out at 6. Further, the “HepSE_elevated liver function tests” value in the data set on Hepatotoxicity [9] turned out to be 1. In addition, in the data set on Hepatotoxicity [10], the HepSE_cirrhosis was 1. In the data set with Hepatotoxicity [11], this compound showed a HepSE_hepatic necrosis of 1. The same compound returned a HepSE_bilirubinemia with Hepatotoxicity [12] of 0. For the same compound, the HepSE_cholecystitis in the data set on Hepatotoxicity [13] turned out to be 0. The compound further came in with a HepSE_liver disease in the data set with Hepatotoxicity [14] of 0.
As to `COc1cc([C@@H]2c3cc4c(cc3[C@@H](O[C@@H]3O[C@@H]5CO[C@@H](C)O[C@H]5[C@H](O)[C@H]3O)[C@H]3COC(=O)[C@H]23)OCO4)cc(OC)c1O` [ETOPOSIDE], the HepSE_jaundice with Hepatotoxicity [1] (Liver) came out at 0. For the same compound, in the data set on Hepatotoxicity [2] (Liver), the HepSE_cholelithiasis is 0. The compound also gave a HepSE_hepatitis in the data set on Hepatotoxicity [3] (Liver) of 0. Moreover, the “HepSE_liver function tests abnormal” value in the data set with Hepatotoxicity [4] (Liver) amounted to 0. Also, the HepSE_liver fatty in the data set with Hepatotoxicity [5] (Liver) is on record as 0. Further, the HepSE_hepatic failure in the data set with Hepatotoxicity [6] (Liver) is given as 0. The compound further yielded a HepSE_hepatomegaly with Hepatotoxicity [7] (Liver) of 0. Also, the “HepSE_Combined Scores” value in the data set with Hepatotoxicity [8] (Liver) stood at 0. Also, the “HepSE_elevated liver function tests” value in the data set with Hepatotoxicity [9] (Liver) was found to be 0. In the data set with Hepatotoxicity [10] (Liver), the HepSE_cirrhosis was 0. Also, the HepSE_hepatic necrosis in the data set with Hepatotoxicity [11] (Liver) was 0. In the data set with Hepatotoxicity [12] (Liver), the HepSE_bilirubinemia is reported as 0. The HepSE_cholecystitis in the data set on Hepatotoxicity [13] (Liver) was 0. The HepSE_liver disease with Hepatotoxicity [14] (Liver) is listed as 0.
